Measured values as given in patent US20080070868A1, “Novel Thiazole Inhibitors of Fructose 1,6-bisphosphatase” (Metabasis Therapeutics, Inc., priority 2004, published 2008).
“Also recorded” adds a separate entry of the source. Where two headings read alike, the source gives them in different places.

Experiments:
[1] = Variability of N-acetylation in human liver S9 fractions; type: in vitro ADME; conditions: 100 μM, S9 10 mg/mL protein; donors with high or low N-acetylase activity
Description: The reactions are incubated, processed, and analyzed as described in Example C.

[2] = biological target: T1, rat liver FBPase (Rattus norvegicus, UniProt P19112); assay: Inhibition of rat liver FBPase; type: biochemical; conditions: partially purified rat liver FBPase; read-out: IC50 (rlFBPase)
T1 construct: This partially purified fraction was used for enzyme assays; from tissue; host or cells: rat liver (45-75% ammonium sulfate fraction of the homogenate)
T1 sequence (P19112 2-363 limits assumed): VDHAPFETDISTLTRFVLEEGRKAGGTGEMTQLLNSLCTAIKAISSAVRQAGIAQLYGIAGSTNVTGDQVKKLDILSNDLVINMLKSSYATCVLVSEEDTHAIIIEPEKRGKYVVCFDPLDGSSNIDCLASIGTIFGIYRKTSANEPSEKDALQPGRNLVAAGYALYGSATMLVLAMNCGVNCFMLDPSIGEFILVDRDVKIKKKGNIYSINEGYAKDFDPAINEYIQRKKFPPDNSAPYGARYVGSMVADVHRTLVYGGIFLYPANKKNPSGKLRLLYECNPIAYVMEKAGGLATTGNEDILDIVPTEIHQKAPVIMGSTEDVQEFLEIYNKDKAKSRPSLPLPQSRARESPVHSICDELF
Description: Rat liver FBPase was obtained by homogenizing freshly isolated rat liver in 100 mM Tris-HCl buffer, pH 7.4, containing 1 mM EGTA, and 10% glycerol. The homogenate was clarified by centrifugation, and the 45-75% ammonium sulfate fraction prepared. This fraction was redissolved in the homogenization buffer and desalted on a PD-10 gel filtration column (Biorad) eluted with same. This partially purified fraction was used for enzyme assays.

[3] = biological target: T2, human liver FBPase (Homo sapiens, UniProt P09467); assay: Inhibition of human liver FBPase; type: biochemical; conditions: purified recombinant human liver FBPase, 0.150 mM fructose 1,6-bisphosphate, 37° C.; read-out: IC50 (hlFBPase)
T2 construct: made in house; host or cells: E. coli BL21
T2 sequence (P09467 2-338 limits assumed): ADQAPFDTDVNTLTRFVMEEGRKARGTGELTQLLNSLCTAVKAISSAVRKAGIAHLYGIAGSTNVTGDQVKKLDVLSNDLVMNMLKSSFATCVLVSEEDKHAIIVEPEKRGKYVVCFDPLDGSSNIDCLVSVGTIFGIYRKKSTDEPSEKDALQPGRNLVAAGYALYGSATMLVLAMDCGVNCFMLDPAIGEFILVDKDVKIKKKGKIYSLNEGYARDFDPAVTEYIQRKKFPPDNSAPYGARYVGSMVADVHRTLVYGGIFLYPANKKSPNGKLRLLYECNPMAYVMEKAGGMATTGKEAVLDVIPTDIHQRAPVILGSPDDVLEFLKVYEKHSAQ
Description: E. coli strain BL21 transformed with a human liver FBPase-encoding plasmid was obtained from Dr. M. R. El-Maghrabi at the State University of New York at Stony Brook. […] Enzymatic activity was measured spectrophotometrically in reactions that coupled the formation of product (fructose 6-phosphate) to the reduction of dimethylthiazoldiphenyltetrazolium bromide (MTT) via NADP^+ and phenazine methosulfate (PMS), using phosphoglucose isomerase and glucose 6-phosphate dehydrogenase as the coupling enzymes. Reaction mixtures (200 μl) were made up in 96-well microtitre plates, and consisted of 50 mM Tris-HCl, pH 7.4, 100 mM KCl, 5 mM EGTA, 2 mM MgCl2, 0.2 mM NADP, 1 mg/ml BSA, 1 mM MTT, 0.6 mM PMS, 1 unit/ml phosphoglucose isomerase, 2 units/ml glucose 6-phosphate dehydrogenase, and 0.150 mM substrate (fructose 1,6-bisphosphate). Inhibitor concentrations were varied from 0.01 μM to 10 μM. Reactions were started by the addition of 0.002 units of pure hlFBPase, and were monitored for 7 min. at 590 nm in a Molecular Devices Plate Reader (37° C.).

[4] = biological target: T3, human NAT1 (Homo sapiens, UniProt P18440); assay: N-acetylation by recombinant human NAT1; type: in vitro ADME; conditions: for % Conversion NAT1: compound 100 μM, 37° C., 120 min, N-acyl product by HPLC; for susceptibility to N-acetylation by NAT1, in words: human recombinant NAT1
T3 construct: purchased BD Gentest (Bedford, Mass.); host or cells: insect cells
T3 sequence (P18440 1-290): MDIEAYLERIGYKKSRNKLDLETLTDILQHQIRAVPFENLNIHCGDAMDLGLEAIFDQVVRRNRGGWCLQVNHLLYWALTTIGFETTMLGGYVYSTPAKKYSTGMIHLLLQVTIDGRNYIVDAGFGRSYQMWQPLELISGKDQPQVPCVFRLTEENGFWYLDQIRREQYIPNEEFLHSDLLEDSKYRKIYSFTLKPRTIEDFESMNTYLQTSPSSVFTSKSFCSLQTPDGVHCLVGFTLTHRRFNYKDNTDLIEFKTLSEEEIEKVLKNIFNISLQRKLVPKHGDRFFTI
Description: (§1) Insect cell-expressed human NAT1 and NAT2 and control insect cytosol were obtained from BD Gentest (Bedford, Mass.). Compounds (100 μM) were incubated in 0.25 mL of NAT reaction cocktail consisting of 25 mM potassium phosphate pH 7.4 (at 25° C.), 1 mM EDTA, 1 mM DTT, 0.5 mM acetyl CoA, 5 mM acetyl-DL-carnitine, 20 u/mL acetyltransferase and either NAT1, NAT2 or control insect cytosol (0.1 mg/mL). Reactions were performed in an Eppendorf Thermomixer (37° C., 120 min.). At 0 and 120 min., 100 μl of each reaction was removed and added to a clean 1.7 mL tube containing 150 μl of 100% methanol. The tubes were vortexed and centrifuged at 14,000 rpm for 10 min. in an Eppendorf microcentrifuge (room temperature, 5 min., 14,000 rpm). The supernatants were analyzed by HPLC (Agilent 1100 series) using a Phenosphere C18 column (5 micron, 150×4.6 mm). The column was equilibrated with 20 mM potassium phosphate pH 4.5 or pH 6.2 (at 25° C.) and eluted with a linear gradient to 80% acetonitrile. The percent conversion of the compounds was calculated from the following equation: area of N-acyl product divided by (area of compound+area of N-acyl product), multiplied by 100.

[5] = biological target: T4, human NAT2 (Homo sapiens, UniProt P11245); assay: N-acetylation by recombinant human NAT2
T4 sequence (P11245 1-290): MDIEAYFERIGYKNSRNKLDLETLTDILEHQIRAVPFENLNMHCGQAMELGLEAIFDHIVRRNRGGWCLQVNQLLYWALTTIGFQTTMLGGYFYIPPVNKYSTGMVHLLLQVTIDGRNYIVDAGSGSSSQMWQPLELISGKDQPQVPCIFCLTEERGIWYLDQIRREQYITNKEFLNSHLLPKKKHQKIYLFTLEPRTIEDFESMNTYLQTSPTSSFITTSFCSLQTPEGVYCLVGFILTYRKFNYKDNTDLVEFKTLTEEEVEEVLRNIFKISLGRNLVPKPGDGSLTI
Description: as §1

[6] = biological target: T4, human NAT2; conditions: for % Conversion NAT2: human, 120 min, 100 μM, pH 7.4
Description: as §1

[7] = tested on: Sprague-Dawley rats; assay: Glucose lowering following oral administration to the fasted, normal rat; type: in vivo; conditions: maximum lowering relative to saline controls, 10 mg/kg oral, 18-h fasted rats
Procedure, shortened: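 Fasted (18 h) Sprague-Dawley rats (250-300 g) dosed 10 mg/kg by oral gavage; phosphonic acids in neutralized water, prodrugs in PEG 400. Tail-vein blood glucose measured pre-dose and hourly after. Value is maximum % glucose lowering versus saline-dosed controls.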

[8] = tested on: ZDF rats; assay: Blood glucose lowering in the Zucker Diabetic Fatty (ZDF) rat; type: in vivo
Description: Nine week old ZDF rats were fasted at 7 am and screened for hyperglycemia (BG>300 mg/dl) at 12:30 pm. […] Food was withheld for 6 to 9 h. Blood samples were collected intermittently from the tail vein and diluted 1:2 (v:v) in 20% glycerol-saline with 20 U/ml heparin. Blood glucose was determined by means of a Hemocue glucose analyzer (Hemocue Inc., Mission Viejo, Calif.) used according to the instructions of the manufacturer. Results were expressed as means ±standard errors of the mean (sem) for all values. Differences between treatment and vehicle-treated animals were evaluated using ANOVA with Dunnett's post-hoc analysis or Tukey-Kramer's post hoc analysis when all differences are compared. Differences are considered significant when p≦0.05.

| Compound | conversion to N-acetylated metabolite in human liver S9 from various donors [1] | IC50 [2] | IC50 [3] | % Conversion NAT1 [4] | susceptibility to N-acetylation by NAT1, in words [4] | % Conversion NAT2 ([5]; compound 100 μM, 37° C., 120 min, N-acyl product by HPLC) | susceptibility to N-acetylation by NAT2, in words ([5]; human recombinant NAT2) | susceptibility to N-acetylation by NAT2, in words [6] | % Conversion NAT2 [6] | inhibition in vivo at 10 mg/kg [7] | glucose lowering compared to vehicle-treated rats ([8]; 10 mg/kg oral in PEG-400, at 6 h, fasting ZDF rats) | duration of action ([8]; ZDF rat, oral, 2.1 at 10-300 mg/kg) | melting point |
| --- | --- | --- | --- | --- | --- | --- | --- | --- | --- | --- | --- | --- | --- |
| CC(C)(C)C(=O)c1sc(N)nc1-c1ccc(P(=O)(O)O)o1 [Compound 1.1, {5-[2-amino-5-(2,2-dimethylpropionyl)thiazol-4-yl]-furan-2-yl}phosphonic acid] | no conversion | 0.189 µM | 0.031 µM | 0% | not metabolized; also recorded: insusceptible | 0% | insusceptible |  |  |  |  |  |  |
| CCOC(=O)C(C)(C)NP(=O)(NC(C)(C)C(=O)OCC)c1ccc(-c2nc(N)sc2C(=O)C(C)(C)C)o1 [Compound 2.1] | no conversion |  | > 100 µM | 0% | insusceptible |  |  | insusceptible | 0% | 68% | 30% | > 9 h | 149 to 152 °C |
| CC(C)(C)Cc1sc(N)nc1-c1ccc(P(=O)(O)O)o1 [Compound 3.1, reference compound] |  | 0.092 µM | 0.012 µM | 22.4% | highly susceptible |  |  |  |  |  |  |  |  |
| CC(C)Cc1sc(N)nc1-c1ccc(P(=O)(O)O)o1 [Compound 3.6, reference compound] | high levels | 0.14 µM |  | 51% | highly susceptible |  |  |  | 5.9% |  |  |  |  |
